Earlier results in patent publication US20200229456A1, “Synergistic Formulation Including At Least One Gibberellin Compound and Salicyclic Acid” (Stoller Enterprises, Inc., priority 2018, published 2020).

Tests used:
tomatoes = conditions: GA3 at 0.1%, CaCl2 at 1.5%, SA at 0.4 mM
banana slices = conditions: GA3 applied exogenously on banana slices
Cavendish bananas = conditions: 300 ppm GA3 or 4 mM SA, versus other treatments
Bananas = conditions: SA at either 0.5 mM or 1 mM

SMILES: [Ca+2].[Cl-].[Cl-] [CaCl2, calcium chloride]
- shelf life of tomatoes (tomatoes): extended the shelf life

SMILES: C=C1C[C@]23C[C@@]1(O)CC[C@H]2[C@@]12C=C[C@H](O)[C@@](C)(C(=O)O1)[C@H]2[C@@H]3C(=O)O [GA3, gibberellic acid]
- postponement of accumulation of sucrose (banana slices): 2 days
- respiration rate or ethylene profile (banana slices): does not alter
- shelf life of tomatoes (tomatoes): extended the shelf life
- delay in ripening (Cavendish bananas): more considerable delay in ripening

SMILES: O=C(O)c1ccccc1O [SA, Salicylic acid]
- fruit firmness (Bananas): firmer fruits
- respiration rates (Bananas): decrease in respiration rates
- sugar content (Bananas): lower sugar content
- shelf life of tomatoes (tomatoes): extended the shelf life
- delay in ripening (Cavendish bananas): more considerable delay in ripening
